Tested on: rat pancreatic islets
Experiment: Protective effect on beta cell death: quantification of cytoplasmic nucleosomes (apoptosis, Cell Death Detection ELISA) in cultured rat islets with or without cytokine cocktail
Type: cell-based
Experimental: Male Wistar rat islets (Elevage Janvier, Le Genest-St-Isle, France) were isolated using collagenase (Serva, Heidelberg, Germany) and cultured in RPMI at 11 mM glucose (Invitrogen, CA, USA) supplemented with 10% FCS (Fetal Calf Serum), 100 Units/ml penicillin, 100 μg/ml streptomycin and 100 μg/ml gentamycin in low-attachment 24-well plates (Corning, NY, USA). These islets were incubated with a cocktail of rat cytokines (TNF-alpha, IL-1beta and INF-gamma each at 2 ng/ml) for 24 hours (Brun T. et al., 2004 and 2007). […] Aliquots of the medium were used to measure insulin accumulated during the culture period using immune enzyme assay kits (Brunchwig, Basel, Switzerland). Furthermore, quantification of cytoplasmic nucleosomes, a direct indicator of apoptosis, was performed with the Cell Death Detection ELISA kit (Roche, Basel, Switzerland). Each condition was tested with 50 rat islets in duplicate and four independent experiments were performed. The results are provided as mean+/−sem and statistical analyses were performed using one-way ANOVA with Bonferroni and Dunnett post-hoc tests.
The conditions without cytokines allowed the analysis of the specific effect of the compound on islets while the combination of the drug with cytokines allowed the study of the effect of Imeglimin on islets under an inflammatory stress. To measure cell death in islets, quantification of cytoplasmic nucleosomes in islet cells, a consequence of DNA fragmentation during apoptosis (Robertson et al., 2000), was performed. […] Furthermore, a negative control and a positive control were added to the conditions with and without cytokines to test the effectiveness of the protocol. […] The results of the quantification of cell death for each condition are presented on FIG. 1.

[1] = with cytokines (TNF-alpha, IL-1beta, INF-gamma each 2 ng/ml, 24 hours), 100 μM

Compound | protective properties against apoptosis on cultured rat islets (basal and inflammation-like apoptosis) | protection of islets from the cytokine stress (both doses (100 μM and 1 mM), cytokine cocktail 24 hours) | less apoptosis than cytokine-stressed islets [1] [%] | less apoptosis than untreated islets [1] [%] | less apoptosis than cytokine-stressed islets (with cytokines, 1 mM) [%] | less apoptosis than untreated islets (with cytokines, 1 mM) [%] | potency relative to Exendin-4 (more potent) (with cytokines, lower concentration tested (100 μM) vs Exe-4 10 nM) [%] | level of protection relative to the Exendin-4 level (without cytokines, 100 μM vs Exe-4 10 nM) | less apoptosis than untreated islets (without cytokines, 100 μM, 24 hours culture) [%] | drop in apoptosis vs cytokine-stressed islets (with cytokines, Exe-4 10 nM) [%] | drop in apoptosis vs untreated islets (with cytokines, Exe-4 10 nM) [%] | decrease in cell death (without cytokines, Exe-4 10 nM, vs untreated islets) [%]
CC1N=C(N)NC(N(C)C)=N1.Cl (single isomer, unassigned; (+)) [(+)-2-amino-3,6-dihydro-4-dimethylamino-6-methyl-1,3,5-triazine hydrochloride] | protective properties against basal and inflammation-like apoptosis | completely protected | 37 | 29 | 25 | 16 | ~50 | two thirds | 10 | – | – | –
Exendin-4 [reference compound] | – | – | – | – | – | – | – | – | – | 29 | 20 | 16

— patent US9271984B2, “Treatment of type 1 diabetes” (POXEL, priority 2010, dated 2016)
